Experimental data as given in the CheMixHub ionic liquid set.

Assay: xn = mol fraction of the nth substance listed
Conditions: 308.15 K, 101 kPa

Cc1ncc(C[n+]2csc(CCO)c2C)c(N)n1.Cl.[Cl-] + CCCCCCCCCCCCOS(=O)(=O)[O-].[Na+] + O
Conditions | electrical conductivity [S/m]
x2 = 0, x1 = 1.8e-07 | 0.00293
x2 = 0, x1 = 9e-07 | 0.00544
x2 = 0, x1 = 1.8e-06 | 0.00836
x2 = 7.35e-06, x1 = 1.8e-07 | 0.00693
x2 = 7.35e-06, x1 = 9e-07 | 0.00954
x2 = 7.35e-06, x1 = 1.8e-06 | 0.0129
x2 = 1.463e-05, x1 = 1.8e-07 | 0.0109
x2 = 1.463e-05, x1 = 9e-07 | 0.0135
x2 = 1.463e-05, x1 = 1.8e-06 | 0.0172
x2 = 2.18e-05, x1 = 1.8e-07 | 0.0147
x2 = 2.18e-05, x1 = 9e-07 | 0.0175
x2 = 2.18e-05, x1 = 1.8e-06 | 0.0213
x2 = 2.901e-05, x1 = 1.8e-07 | 0.0186
x2 = 2.901e-05, x1 = 9e-07 | 0.0215
x2 = 2.901e-05, x1 = 1.8e-06 | 0.0254
x2 = 3.604e-05, x1 = 1.8e-07 | 0.0224
x2 = 3.604e-05, x1 = 9e-07 | 0.0254
x2 = 3.604e-05, x1 = 1.8e-06 | 0.0296
x2 = 4.307e-05, x1 = 1.8e-07 | 0.026
x2 = 4.307e-05, x1 = 9e-07 | 0.0293
x2 = 4.307e-05, x1 = 1.8e-06 | 0.0336
x2 = 4.991e-05, x1 = 1.8e-07 | 0.0297
x2 = 4.991e-05, x1 = 9e-07 | 0.0331
x2 = 4.991e-05, x1 = 1.8e-06 | 0.0376
x2 = 5.676e-05, x1 = 1.8e-07 | 0.0333
x2 = 5.676e-05, x1 = 9e-07 | 0.0367
x2 = 5.676e-05, x1 = 1.8e-06 | 0.0416
x2 = 6.361e-05, x1 = 1.8e-07 | 0.037
x2 = 6.361e-05, x1 = 9e-07 | 0.0404
x2 = 6.361e-05, x1 = 1.8e-06 | 0.0455
x2 = 7.027e-05, x1 = 1.8e-07 | 0.0405
x2 = 7.027e-05, x1 = 9e-07 | 0.0441
x2 = 7.028e-05, x1 = 1.8e-06 | 0.0493
x2 = 7.694e-05, x1 = 1.8e-07 | 0.044
x2 = 7.694e-05, x1 = 9e-07 | 0.0477
x2 = 7.694e-05, x1 = 1.8e-06 | 0.0529
x2 = 8.361e-05, x1 = 1.8e-07 | 0.0473
x2 = 8.361e-05, x1 = 9e-07 | 0.0513
x2 = 8.361e-05, x1 = 1.8e-06 | 0.0564
x2 = 9.009e-05, x1 = 1.8e-07 | 0.0507
x2 = 9.009e-05, x1 = 9e-07 | 0.0547
x2 = 9.009e-05, x1 = 1.8e-06 | 0.0597
x2 = 9.658e-05, x1 = 1.8e-07 | 0.054
x2 = 9.658e-05, x1 = 9e-07 | 0.0581
x2 = 9.658e-05, x1 = 1.8e-06 | 0.0627
x2 = 0.0001031, x1 = 1.8e-07 | 0.0571
x2 = 0.0001031, x1 = 9e-07 | 0.0612
x2 = 0.0001031, x1 = 1.8e-06 | 0.0656
x2 = 0.0001094, x1 = 1.8e-07 | 0.0601
x2 = 0.0001094, x1 = 9e-07 | 0.0641
x2 = 0.0001094, x1 = 1.8e-06 | 0.0684
x2 = 0.0001157, x1 = 1.8e-07 | 0.0629
x2 = 0.0001157, x1 = 9e-07 | 0.0668
x2 = 0.0001157, x1 = 1.8e-06 | 0.071
x2 = 0.000122, x1 = 1.8e-07 | 0.0658
x2 = 0.000122, x1 = 9e-07 | 0.0696
x2 = 0.000122, x1 = 1.8e-06 | 0.0734
x2 = 0.0001281, x1 = 1.8e-07 | 0.0684
x2 = 0.0001281, x1 = 9e-07 | 0.0725
x2 = 0.0001281, x1 = 1.8e-06 | 0.0755
x2 = 0.0001342, x1 = 1.8e-07 | 0.0709
x2 = 0.0001342, x1 = 9e-07 | 0.0746
x2 = 0.0001342, x1 = 1.8e-06 | 0.0776
x2 = 0.0001404, x1 = 1.8e-07 | 0.0732
x2 = 0.0001404, x1 = 9e-07 | 0.0766
x2 = 0.0001404, x1 = 1.8e-06 | 0.0797
x2 = 0.0001465, x1 = 1.8e-07 | 0.0752
x2 = 0.0001465, x1 = 9e-07 | 0.0783
x2 = 0.0001465, x1 = 1.8e-06 | 0.0817
x2 = 0.0001524, x1 = 1.8e-07 | 0.077
x2 = 0.0001524, x1 = 9e-07 | 0.08
x2 = 0.0001524, x1 = 1.8e-06 | 0.0836
x2 = 0.0001584, x1 = 1.8e-07 | 0.0786
x2 = 0.0001584, x1 = 9e-07 | 0.0816
x2 = 0.0001584, x1 = 1.8e-06 | 0.0855
x2 = 0.0001641, x1 = 1.8e-07 | 0.0802
x2 = 0.0001641, x1 = 9e-07 | 0.0831
x2 = 0.0001641, x1 = 1.8e-06 | 0.0874
x2 = 0.0001699, x1 = 1.8e-07 | 0.0817
x2 = 0.0001699, x1 = 9e-07 | 0.0846
x2 = 0.0001699, x1 = 1.8e-06 | 0.0893
x2 = 0.0001757, x1 = 1.8e-07 | 0.083
x2 = 0.0001757, x1 = 9e-07 | 0.086
x2 = 0.0001757, x1 = 1.8e-06 | 0.091
x2 = 0.0001814, x1 = 1.8e-07 | 0.0843
x2 = 0.0001814, x1 = 9e-07 | 0.0874
x2 = 0.0001814, x1 = 1.8e-06 | 0.0928
x2 = 0.000187, x1 = 1.8e-07 | 0.0855
x2 = 0.000187, x1 = 9e-07 | 0.0887
x2 = 0.000187, x1 = 1.8e-06 | 0.0946
x2 = 0.0001928, x1 = 1.8e-07 | 0.0867
x2 = 0.0001928, x1 = 9e-07 | 0.09
x2 = 0.0001928, x1 = 1.8e-06 | 0.0964
x2 = 0.0001982, x1 = 1.8e-07 | 0.0879
x2 = 0.0001982, x1 = 9e-07 | 0.0912
x2 = 0.0001982, x1 = 1.8e-06 | 0.0982
x2 = 0.0002038, x1 = 1.8e-07 | 0.089
x2 = 0.0002038, x1 = 9e-07 | 0.0924
x2 = 0.0002038, x1 = 1.8e-06 | 0.0997
x2 = 0.0002092, x1 = 1.8e-07 | 0.0901
x2 = 0.0002092, x1 = 9e-07 | 0.0936
x2 = 0.0002092, x1 = 1.8e-06 | 0.101
x2 = 0.0002147, x1 = 1.8e-07 | 0.0913
x2 = 0.0002148, x1 = 9e-07 | 0.0949
x2 = 0.0002148, x1 = 1.8e-06 | 0.102
x2 = 0.00022, x1 = 1.8e-07 | 0.0925
x2 = 0.00022, x1 = 9e-07 | 0.0961
x2 = 0.00022, x1 = 1.8e-06 | 0.104
x2 = 0.0002254, x1 = 1.8e-07 | 0.0937
x2 = 0.0002254, x1 = 9e-07 | 0.0974
x2 = 0.0002254, x1 = 1.8e-06 | 0.105
x2 = 0.0002306, x1 = 1.8e-07 | 0.0949
x2 = 0.0002306, x1 = 9e-07 | 0.0986
x2 = 0.0002306, x1 = 1.8e-06 | 0.106
x2 = 0.0002358, x1 = 1.8e-07 | 0.0962
x2 = 0.0002358, x1 = 9e-07 | 0.0998
x2 = 0.0002358, x1 = 1.8e-06 | 0.107
x2 = 0.0002411, x1 = 1.8e-07 | 0.0973
x2 = 0.0002411, x1 = 9e-07 | 0.101
x2 = 0.0002411, x1 = 1.8e-06 | 0.108
